Source: paper PMC10552397 (Cell Communication and Signaling : CCS, 2023)

Experiments:
SDC4 = biological target: T1, SDC4 (Homo sapiens, UniProt P31431); test: TPP-TR/RTSA, SDC4; assay type: binding
T1 construct: endogenous in cells; host or cells: HeLa wt cells
T1 sequence (P31431 19-198): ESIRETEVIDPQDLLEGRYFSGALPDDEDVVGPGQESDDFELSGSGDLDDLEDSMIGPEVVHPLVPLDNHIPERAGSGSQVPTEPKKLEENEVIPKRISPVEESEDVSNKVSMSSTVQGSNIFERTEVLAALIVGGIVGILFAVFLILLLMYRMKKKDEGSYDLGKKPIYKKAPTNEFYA
Procedure: (§1) TPP was performed essentially as described, but with major modifications to the TMT labeling sets and statistical data analysis for TPP-TR.
(§2) Adherent cells were washed in the dish once with DPBS and harvested by Trypsin–EDTA (0.25%, Thermo Fisher Scientific, Waltham, MA, USA, #25,200,056) treatment. […]
(§3) After temperature treatment, samples were supplemented with lysis buffer (final concentrations: 0.36 U/µL benzonase, 1.5 mM MgCl2, 1 mM Na3VO4, 10 mM NaF, 2.5 mM Na4P2O7, 0.8% w/v NP-40) for 1 h on ice. […] The total protein concentration of the resulting cell extracts containing the fraction of soluble, non-denatured proteins was determined (Pierce 660 nm Protein Assay, BSA as standard). […] The two (37 °C or 50 °C) x ten (concentrations) x three (replicates) = 60 TPP-CCR samples and two (treatment and control) x ten (temperatures) x three (replicates) = 60 TPP-TR samples were analyzed by LC–MS/MS. GRASP55 was additionally quantified from the TPP-TR samples by immunoblotting as described in the respective section.
(§4) For TPP-CCR, SP3 was performed as described with slight modifications to the original protocol using on average 5 µg total protein per sample and resulting in theoretically 5 µg peptides in 22 µL 50 mM triethylammonium bicarbonate per sample. […] This volume was calculated such that the lowest two temperature samples (36.5 °C and 41.2 °C) contained 10 µg total protein on average. […]

HeLa wt cells = test: Immunofluorescence of GRASP55 and LC3; assay type: cell-based; conditions: 6 h
Procedure: For immunofluorescence microscopy, HeLa cells were seeded on glass coverslips in 24-well plates. After treatment, cells were fixed in 4% paraformaldehyde for 15 min on ice, quenched with 50 mM NH4Cl for 15 min and permeabilized with 50 µg/mL digitonin (Sigma-Aldrich, St. Louis, MO, USA, #D141) for 5 min. Fixed samples were blocked with 3% BSA (Roth, Karlsruhe, Germany, #8076) for 30 min or overnight and incubated with primary antibodies diluted in 3% BSA for 2 h. Samples were then washed three times with DPBS, incubated with the appropriate secondary antibodies diluted in 3% BSA for 30 min and washed three times with DPBS. Afterwards, cells were embedded in ProLong Glass Antifade Mountant (Thermo Fisher Scientific, Waltham, MA, USA, #P36980) containing 1 µg/mL DAPI (Roth, Karlsruhe, Germany, #6335.1). Images were recorded with an Axio Observer 7 fluorescence microscope (Carl Zeiss Microscopy, Oberkochen, Germany) using a 40x/1,4 Oil DIC M27 Plan-Apochromat objective (Carl Zeiss Microscopy, Oberkochen, Germany) and an ApoTome 2 (Carl Zeiss Microscopy, Oberkochen, Germany).

GRASP55 = GRASP55 (Homo sapiens, UniProt Q9H8Y8); test: Thermal proteome profiling temperature range (TPP-TR/RTSA), GRASP55; assay type: binding; parameters: endogenous in cells; host or cells: HeLa wt cells; conditions: 100 nM, 6 h
Procedure: as §1, §2, §3, §4

CCCCCC1=C/C(=C/c2[nH]c(-c3ccc[nH]3)cc2OC)N=C1C [Prodigiosin, prodigiosin] was tested, and the ΔTm at 0.1 µM (SDC4; 100 nM vs DMSO, 6 h, HeLa wt, read-out: Mean_dTm) was 0.55 °C, the distancescore (SDC4; RTSA distance score) was 10.308 and the “co-localization of LC3 and GRASP55” value (HeLa wt cells; BafA1 10 nM) was “highly significant, dose-dependent increase”. For the same compound, the “number of LC3 dots” value (HeLa wt cells; BafA1 10 nM) was “increased dose-dependently”, the “mean area of GRASP55 dots” value (HeLa wt cells; all concentrations, vs DMSO) was “significantly increased” and the “mean melting point difference of GRASP55 (TPP-TR)” value (GRASP55; HeLa wt, vs DMSO) was 2.1 °C. The “effect on GRASP55 abundance” value (GRASP55; intensities at 36.5 °C) was “No effect”.
